The source of these data is patent publication US20260240835A1 (priority 2022, published 2026).

Counter-ions that a name gives are not always drawn. Like-named read-outs stand apart in the source and are kept apart here.

A short description of data set [1]: Pharmacokinetics in moderate renal impairment versus matched controls. From the text: (§1) References used are the matched healthy subjects for renal and hepatic impairment studies, and extensive or ultra-extensive CYP2D6 metabolizers respectively.
Data set [2] in a line: Pharmacokinetics in moderate hepatic impairment versus matched healthy subjects. It is filed as in vivo, human.
Description: Data are GMRs and 90% Cls. References used are the matched healthy subjects for renal and hepatic impairment studies, and extensive or ultra-extensive CYP2D6 metabolizers respectively.
The nature of data set [3]: Solubility of the powder in water.
Data set [4] can be described thus: Steady state pharmacokinetics after administration of the subject combination. As to conditions: for AUC0-12 relative to that of bupropion / Cmax relative to that of bupropion / time post-dose at which Cmax of the metabolite occurs: after administration of the subject combination; for apparent elimination half-life of metabolite: subject combination; for dose proportionality of changes in AUC and Cmax at steady state: co-administered with bupropion.

Data set [5] in a line: Effect of food on pharmacokinetics of the subject combination.
Data set [6] is described as follows: Co-administration of paroxetine and the subject combination (drug interaction).
A short description of data set [7]: Pharmacokinetics in CYP2D6 poor metabolizers versus extensive metabolizers. As to conditions: 12 poor metabolizers treated with the subject combination in efficacy trials.
Description: Approximately 7% to 10% of Caucasians and 3% to 8% of African Americans lack the capacity to metabolize CYP2D6 substrates and are classified as poor metabolizers.
as §1

The test system of data set [8] is patients with treatment-resistant depression or MDD with acute suicidal ideation or behavior. The note with it: cited from earlier work.
The conditions of data set [9]: human, in vivo.
[10] abbreviates: 7 subjects with moderate (GFR 30-60 mL/min) renal impairment vs 6 matched controls.
The mark [11] stands for this setting: given as the subject combination.
Where [12] appears, read: 20 mg paroxetine, tablet of Example 4 twice daily, vs tablet without paroxetine.

With `CC(NC(C)(C)C)C(=O)c1cccc(Cl)c1` (racemic) [bupropion], in [1] (human, in vivo), the “increase in exposure versus matched controls with normal renal function” value is “approximately 2 fold” and the “reduction in clearance versus matched controls with normal renal function” value is 50%. Besides, the “AUC0-12 and Cmax compared with healthy patients” value in [2] (human, in vivo) was “not significantly different”.

For the molecule `COc1ccc2c(c1)[C@]13CCCC[C@@H]1[C@H](C2)N(C)CC3` [Dextromethorphan hydrobromide, morphinan, 3-methoxy-17-methyl-, (9α, 13α, 14α), hydrobromide monohydrate], the solubility in water result in data set [3] is “sparingly soluble”.

As to `C[C@H](NC(C)(C)C)[C@@H](O)c1cccc(Cl)c1` [threohydroxybupropion], in [4], the “AUC0-12 relative to that of bupropion” value is on record as “about 7 times”, the “Cmax relative to that of bupropion” value is given as “about 5 times”, the “time post-dose at which Cmax of the metabolite occurs” value (“time post-dose at which Cmax” below) is “approximately 4 hours” and the “apparent elimination half-life of metabolite” value (from here on “apparent elimination half-life”) was roughly 33 h.

As for `COc1ccc2c(c1)[C@]13CCCC[C@@H]1[C@H](C2)N(C)CC3` [dextromethorphan], in data set [1] (setting [10]), the “increase in exposure versus matched controls with normal renal function” value is recorded as “approximately 2 fold” and the “reduction in clearance versus matched controls with normal renal function” value is given as 50%. The “dose proportionality of changes in AUC and Cmax at steady state” value in data set [4] (varying doses of bupropion (75 to 150 mg)) is given as “less than dose-proportional”. For the same molecule, in data set [4] (varying doses of dextromethorphan (30 to 60 mg)), the “dose proportionality of changes in AUC and Cmax at steady state” value is listed as “greater than dose-proportional”. The “increase in mean elimination half-life as compared to dextromethorphan given without bupropion” value in data set [4] (following 8 days of administration of the subject combination in extensive metabolizers) is listed as “approximately 3 fold”. For the same molecule, in data set [4] (setting [11]), the “accumulation ratio at steady state based on AUC0-12” value is “about 32” and the “accumulation ratio at steady state based on Cmax” value is given as “about 20”. In data set [2] (patients having moderate hepatic impairment (Group 2)), the “AUC0-12 and Cmax compared with healthy patients” value is listed as “not significantly different”. Further, in data set [5], the “change in Cmax when administered with food” value is given as “unchanged” and the “decrease in AUC0-12 when administered with food” value was determined as 14%. Besides, in data set [6] (setting [12]), the “increase in AUC0-12 with concomitant paroxetine” value was 2.69 fold and the “increase in Cmax with concomitant paroxetine” value is given as 2.38 fold. The “change in overall exposure caused by paroxetine” value in data set [6] (29 healthy volunteers, paroxetine co-administered with the subject combination) is on record as 2.5 fold. For the same molecule, the “steady state plasma concentrations compared with non-poor metabolizers” value in data set [7] is listed as “generally higher”.

Take `C[C@H]1NC(C)(C)CO[C@]1(O)c1cccc(Cl)c1` [hydroxybupropion]: in data set [4], the “AUC0-12 relative to that of bupropion” value is recorded as “about 19 times”, the “Cmax relative to that of bupropion” value is on record as “approximately 14 times”, the “time post-dose at which Cmax” value is on record as “about 3 hours” and the “apparent elimination half-life” value was “approximately 35 hours”.

`CN[C@]1(c2ccccc2Cl)CCCCC1=O` [esketamine]: the “incidence of sedation (MOAA/S score <5) compared to placebo plus oral antidepressant” value in data set [8] (adults with MDD with acute suicidal ideation or behavior, plus oral antidepressant) is on record as “higher incidence of sedation”. Moreover, the “Incidence of Sedation (MOAA/S score <5)” value in data set [8] (fixed-dose study, TRD patients <65 years, 56 mg + oral AD) is 50%; in [8] (fixed-dose study, TRD patients <65 years, 84 mg + oral AD), 61%; in [8] (flexible-dose study, TRD patients ≥65 years, 28 to 84 mg + oral AD), 49%.

In the case of `Fc1ccc([C@@H]2CCNC[C@H]2COc2ccc3c(c2)OCO3)cc1` [paroxetine], the “increase in overall exposure when co-administered with the subject combination” value in data set [9] is recorded as 1.2 fold.

As for `CC(NC(C)(C)C)C(O)c1cccc(Cl)c1` (centres unmarked) [erythrohydroxybupropion], in [4], the “AUC0-12 relative to that of bupropion” value is listed as “about 1.2 times”, the “Cmax relative to that of bupropion” value is recorded as “approximately equal to”, the “time post-dose at which Cmax” value is listed as “approximately 4 hours” and the “apparent elimination half-life” value was roughly 44 h.
